Source: US20010051602A1, “Methods for increasing ApoE levels for the treatment of neurodegenerative disease” (priority 1997, published 2001)

Columns and labels:
ApoE [1] = experiment: astrocyte screening assay: secreted ApoE in rat type 1 astrocyte cultures; type: cell-based; conditions: for levels of extracellular (secreted) ApoE: astrocyte screening assay
Description: Other culture systems which may be used include human culture systems of primary cells derived from human tissue or immortalized cell lines of nerve tissue origin such as the human astrocyte cell line, AsCH-7 (Bobryshev et al., 1995). In addition, novel cell lines from patients with various apoE genotypes may be used, as well as cell lines from patients suffering or predisposed to suffer from any of the neurodegenerative diseases described herein. Adult spinal cord from post-mortem patients with any of the above diseases may be used as a source for deriving cell lines of nerve tissue origin. One method of immortalizing cells from these patients is to infect primary tissue with a replication-deficient retrovirus containing DNA sequences encoding the SV40 large T antigen (Whittemore et al., 1994). Another method is to derive immortal human-human hybrid cell lines that express phenotypic characteristics of primary oligodendrocytes or astrocytes by fuising a 6-thioguanine-resistant mutant of the human rhabdomyosarcoma RD cell line with adult human nerve tissue by a lectin-enhanced polyethylene glycol procedure (McLaurin et al., 1995). Other methods for immortalizing cells derived from primary human nerve tissue could include the use of chemical carcinogens or radiation. […] Antibodies to ApoE allow for the design of a high throughput assay using an immunoassay detection method.
(§1) To verify this working hypothesis, we have examined the effect of various concentration of tacrine on ApoE synthesis and secretion in brain cells in culture. FIG. 5 illustrates the effect of tacrine on ApoE secretion in rat type 1 astrocyte cultures exposed (for 8 hours) to physiological and pharmacological concentrations of the drug. […] Experimental methods used to monitor ApoE levels are described in Bertrand et al., Mol. Brain Res. 33:174-178 (1995).

Alzheimer's disease = conditions: Alzheimer's patients treated for very long periods; cited from earlier work
ApoE [2] = conditions: AD subjects treated with tacrine for several months, N = 4; untreated Alzheimer 0.36
Description: as §1

Row | Structure (SMILES) | levels of extracellular (secreted) ApoE (ApoE [1]) | delay of institutionalization (Alzheimer's disease) | ApoE secretion in astrocytes (ApoE [1]; rat type 1 astrocyte cultures exposed for 8 hours, 2 uM, concentration typically found in CSF of treated AD patients) | ApoE Concentration In the Cerebrospinal Fluid (CSF), Mean (ApoE [2]) [mg/dL]
1 | COc1cc2c(cc1OC)C(=O)C(CC1CCN(Cc3ccccc3)CC1)C2 (stereo not drawn) [donepezil] | no effect |  |  | 
2 | Nc1c2c(nc3ccccc13)CCCC2 [tacrine] | increase | more than 1.5 years | increases | 0.41
3 | CCCCCCCNC(=O)Oc1ccc2c(c1)[C@]1(C)CCN(C)[C@@H]1N2C [heptylphysostigmine] | increase |  |  | 
